Experimental findings from US20250127906A1, “SMALL-MOLECULE DEGRADERS OF CDK8 AND CDK19” (University of South Carolina, priority 2021, published 2025) are described below.

This experiment deals with CDK8 (Homo sapiens, UniProt P49336). The experiment is described as follows: CDK8 degradation in HEK-293 cells (Western blot, normalized by GAPDH). It counts as cell-based. More on the design: endogenous in cells; host or cells: HEK-293. Conditions: for % CDK8 remaining: HEK-293 cells, 24 hours, tested at 1 μM; for induction of CDK8 degradation by single agents: HP8580 200 nM and 1 μM, pomalidomide 5 μM, Senexin C 5 μM. Here is the method: Table 1 presents the structures of 35 different chimeras that have been synthesized, together with their effects (at 1 μM or 0.3 μM concentrations) on CDK8 degradation in HEK-293 cells. The synthesis schemes of all the compounds are described below. CDK8 degradation was measured by Western blot analysis of RIPA lysates of HEK-293cells treated with or without the test compound for 24 hours, using antibodies against CDK8 (Santa Cruz sc-1521) and housekeeping protein GAPDH (Santa Cruz sc-32233) (loading control) Protein bands on immunoblotted PVDF membranes were visualized with Western Lighting Plus ECL detection reagent (Perkin Elmer, Waltham, MA, USA) using ChemiDoc Touch™ (Bio-Rad). Image processing and densitometry analysis were performed using ImageLab software (Bio-Rad) to quantify the CDK8 protein levels (normalized by GAPDH) and evaluate the effects of compound treatment.
FIGS. 2F and 2G show the effects of different concentrations of potent Senexin C- and BI-1347-based PROTACs on CDK8 and CDK19 degradation in HEK-293cells. Based on these assays, we calculated DC50 values that correspond to PROTAC concentrations inducing degradation of CDK8 and CDK19 to the half of protein level in untreated cells. The corresponding CDK8 DC50 values were 46 nM for IA7843, 6.6 nM for IA7882 and 2.8 nM for IA7886, and CDK19 DC50 values were 1 μM for IA7843, 25 nM for IA7882 and 10 nM for IA7886.
Background: In western blotting, separated proteins are transferred to a membrane and probed.

Sequence of CDK8 (P49336 whole entry): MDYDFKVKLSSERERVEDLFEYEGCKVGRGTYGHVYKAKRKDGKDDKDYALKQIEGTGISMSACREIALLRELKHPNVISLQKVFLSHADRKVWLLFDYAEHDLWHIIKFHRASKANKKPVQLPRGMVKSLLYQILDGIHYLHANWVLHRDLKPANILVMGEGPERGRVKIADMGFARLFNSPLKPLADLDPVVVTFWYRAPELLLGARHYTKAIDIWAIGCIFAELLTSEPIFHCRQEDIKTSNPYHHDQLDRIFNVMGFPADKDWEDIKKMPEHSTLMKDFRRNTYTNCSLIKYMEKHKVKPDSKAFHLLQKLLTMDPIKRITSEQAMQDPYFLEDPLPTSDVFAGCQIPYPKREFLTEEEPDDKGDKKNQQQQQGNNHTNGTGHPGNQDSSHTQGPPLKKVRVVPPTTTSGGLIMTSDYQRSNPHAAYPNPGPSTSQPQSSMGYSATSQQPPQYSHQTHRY
Sequence of CDK8 (P24863 whole entry partner): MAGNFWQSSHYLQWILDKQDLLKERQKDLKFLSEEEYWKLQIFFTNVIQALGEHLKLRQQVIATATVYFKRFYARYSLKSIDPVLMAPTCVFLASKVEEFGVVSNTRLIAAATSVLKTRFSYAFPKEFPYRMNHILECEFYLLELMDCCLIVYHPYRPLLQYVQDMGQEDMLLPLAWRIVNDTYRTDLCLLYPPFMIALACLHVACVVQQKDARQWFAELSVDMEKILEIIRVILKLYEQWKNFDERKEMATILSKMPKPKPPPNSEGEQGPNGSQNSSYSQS

In the case of `CN(CCCNC(=O)CCOCCOCCNc1cccc2c1C(=O)N(C1CCC(=O)NC1=O)C2=O)C(=O)c1ccc(N2CCCN(c3ccnc4sc(C(N)=O)c(N)c34)CC2)cc1` (stereo not shown) [HP8578, 3-amino-4-[4-[4-[3-[3-[2-[2-[[2-(2,6-dioxo-3-piperidyl)-1,3-dioxo-isoindolin-4-yl]amino]ethoxy]ethoxy]propanoylamino]propyl-methyl-carbamoyl]phenyl]-1,4-diazepan-1-yl]thieno[2,3-b]pyridine-2-carboxamide], the “% CDK8 remaining” value is recorded as 82%. For the molecule `N#Cc1ccc2nccc(NCCc3ccc4cc(C(=O)N5CCN(C(=O)CCOCCOCCOCCNc6cccc7c6C(=O)N(C6CCC(=O)NC6=O)C7=O)CC5)ccc4c3)c2c1` (stereo not shown) [HV5957, 4-[2-[6-[4-[3-[2-[2-[2-[[2-(2,6-dioxo-3-piperidyl)-1,3-dioxo-isoindolin-4-yl]amino]ethoxy]ethoxy]ethoxy]propanoyl]piperazine-1-carbonyl]-2-naphthyl]ethylamino]quinoline-6-carbonitrile], the “% CDK8 remaining” value stood at 21%. Same read-out and setting: as for `N#Cc1ccc2nccc(NCCc3ccc4cc(C(=O)N5CCN(C(=O)CCCCCCCCCNC(=O)CCCCNc6cccc7c6C(=O)N(C6CCC(=O)NC6=O)C7=O)CC5)ccc4c3)c2c1` (stereo not shown) [IA7861, N-[10-[4-[6-[2-[(6-cyano-4-quinolyl)amino]ethyl]naphthalene-2-carbonyl]piperazin-1-yl]-10-oxo-decyl]-5-[[2-(2,6-dioxo-3-piperidyl)-1,3-dioxo-isoindolin-4-yl]amino]pentanamide], the figure is 19%; as for `N#Cc1ccc2nccc(NCCc3ccc4cc(C(=O)N5CCN(C(=O)CCCCCCCCCCCNC(=O)CCNc6cccc7c6C(=O)N(C6CCC(=O)NC6=O)C7=O)CC5)ccc4c3)c2c1` (stereo not shown) [IA7848, N-[12-[4-[6-[2-[(6-cyano-4-quinolyl)amino]ethyl]naphthalene-2-carbonyl]piperazin-1-yl]-12-oxo-dodecyl]-3-[[2-(2,6-dioxo-3-piperidyl)-1,3-dioxo-isoindolin-4-yl]amino]propanamide], 31%. For the molecule `Nc1cccc2c1C(=O)N(C1CCC(=O)NC1=O)C2=O` (stereo not shown) [pomalidomide, reference compound], the “induction of CDK8 degradation by single agents” value (HEK-293) is “but not pomalidomide or Senexin C induced CDK8 degradation”. Take `N#Cc1ccc2nccc(NCCc3ccc4cc(C(=O)N5CCN(C(=O)CCOCCOCCOCCOCCNc6cccc7c6C(=O)N(C6CCC(=O)NC6=O)C7=O)CC5)ccc4c3)c2c1` (stereo not shown) [HP8580, 4-[2-[6-[4-[3-[2-[2-[2-[2-[[2-(2,6-dioxo-3-piperidyl)-1,3-dioxo-isoindolin-4-yl]amino]ethoxy]ethoxy]ethoxy]ethoxy]propanoyl]piperazine-1-carbonyl]-2-naphthyl]ethylamino]quinoline-6-carbonitrile]: the “% CDK8 remaining” value is 20%. Moreover, the “induction of CDK8 degradation by single agents” value (HEK-293) is “induced CDK8 degradation”. Also, the “effect of co-treatment on HP8580-mediated CDK8 degradation” value (HEK-293, with MG132 5 μM, pomalidomide 5 μM or Senexin C 5 μM) is “reversed by proteasome inhibition with MG132 as well as by competition with pomalidomide or Senexin C”. In the case of `N#Cc1ccc2nccc(NCCc3ccc4cc(C(=O)N5CCN(C(=O)CCOCCOCCOCCOCCOCCOCCNc6cccc7c6C(=O)N(C6CCC(=O)NC6=O)C7=O)CC5)ccc4c3)c2c1` (stereo not shown) [IA7813, 4-[2-[6-[4-[3-[2-[2-[2-[2-[2-[2-[[2-(2,6-dioxo-3-piperidyl)-1,3-dioxo-isoindolin-4-yl]amino]ethoxy]ethoxy]ethoxy]ethoxy]ethoxy]ethoxy]propanoyl]piperazine-1-carbonyl]-2-naphthyl]ethylamino]quinoline-6-carbonitrile], the “% CDK8 remaining” value came to 28%.

Turning to `NC(=O)c1sc2nccc(N3CCCN(c4ccc(C(=O)N5CCN(C(=O)CCOCCOCCOCCOCCNc6cccc7c6C(=O)N(C6CCC(=O)NC6=O)C7=O)CC5)cc4)CC3)c2c1N` (stereo not shown) [IA7892, 3-amino-4-[4-[4-[4-[3-[2-[2-[2-[2-[[2-(2,6-dioxo-3-piperidyl)-1,3-dioxo-isoindolin-4-yl]amino]ethoxy]ethoxy]ethoxy]ethoxy]propanoyl]piperazine-1-carbonyl]phenyl]-1,4-diazepan-1-yl]thieno[2,3-b]pyridine-2-carboxamide], the “% CDK8 remaining” value was 41%.
